2 molecules from patent US12274709B2, “Dual-drug co-delivery system, preparation method therefor and use thereof” (Institute of Basic Medical Sciences Chinese Academy of …, priority 2019, dated 2025) can be followed below.

Holding throughout (format): cell-based
The test system of one data set is HeLa cells. Nature of the data set: CCK8 cell viability, HeLa cells. The note with it: Homo sapiens, HHT 20 ng/mL, DOX 120 ng/mL (6:1). The method, then:
(§1) Cells in the Corning 96-well U plates were incubated for 24 h and then washed with PBS, 110 μL CCK8 dilution was added to each well and incubated for 2 h, and the absorbance values (OD) at wavelengths of 450 and 630 nm were measured using the microplate reader. The cell viability was calculated according to Formula 1.

Data set [1] has as its system U937R (cytarabine-resistant strain, acute myeloid leukemia). Nature of the data set: CCK8 cell viability, U937R cells. The note with it: HHT 15 ng/mL, DOX 120 ng/mL (8:1). The method, then: as §1
For another data set, the system named is K562 cells. As to the kind of experiment: CCK8 cell viability, K562 cells. The conditions noted are these: Homo sapiens, HHT 25 ng/mL, DOX 375 ng/mL (15:1). The protocol:
as §1

The test system of data set [2] is HL60/A cells (HL60 cells resistant to Doxorubicin). As to the kind of experiment: CCK8 cell viability, HL60/A cells. The note with it: 24 h. The protocol:
Taking HL60/A cells (HL60 cells resistant to Doxorubicin) as an example, the specific method was as follows:
as §1

The subject of the next data set is MCF7 cells. As to the kind of experiment: CCK8 cell viability, MCF7 cells. The note with it: Homo sapiens, HHT 25 ng/mL, DOX 100 ng/mL (4:1). The method, then: as §1

By viability is commonly meant a read-out of living cells in per cent, often relative to untreated cells. Read a low viability as more harm to the cells.

The structures appear in SMILES notation. Structures can show the parent of a compound that is named as a salt.

Turning to `COc1cccc2c1C(=O)c1c(O)c3c(c(O)c1C2=O)C[C@@](O)(C(=O)CO)C[C@@H]3O[C@H]1C[C@H](N)[C@H](O)[C@H](C)O1` [DOX, Doxorubicin hydrochloride], the viability at 0.12 µg/mL in the data set on HeLa cells is 90%; in data set [1] it was 55%. The molecule further returned a viability at 0.375 µg/mL in the data set on K562 cells of 80%. Moreover, the “cytotoxicity against Doxorubicin-resistant strain HL60/A” value in data set [2] (DOX 200 ng/mL, FIG. 3) was “no cytotoxicity”. Besides, the viability at 0.1 µg/mL in the data set with MCF7 cells worked out at 92%.

For `COC(=O)C[C@](O)(CCCC(C)(C)O)C(=O)O[C@@H]1C(OC)=C[C@]23CCCN2CCc2cc4c(cc2[C@H]13)OCO4` [HHT, Homoharringtonine], the viability at 0.02 µg/mL in the data set on HeLa cells was determined as 41%. This molecule gave a viability at 0.015 µg/mL in data set [1] of 59%. Also, the viability at 0.025 µg/mL in the data set with K562 cells was found to be 59%; in data set [2] (Homo sapiens, HL60/A cells, HHT 25 ng/mL, DOX 200 ng/mL (DOX:HHT 8:1), FIG. 3, system of Example 1), 56%; in the data set on MCF7 cells, 50%.
